From publication PMC11871066, “Structure-based discovery of hydrocarbon-stapled paxillin peptides that block FAK scaffolding in cancer” (Nature Communications, 2025)
Read-outs that look alike come from different tables or passages of the source. Values belong to the molecule of their own block, whether it stands above or below them. Bridge positions count the residues as written; N and C are the ends. Square brackets hold non-standard residues; d marks the D form. Peptide text beside a SMILES is read from it. * marks the point of attachment. Myristoyl = CCCCCCCCCCCCCC(=O)*; R8 = C=CCCCCCC[C@@](C)(N)C(=O)O; S5 = C=CCCC[C@](C)(N)C(=O)O

Key:
[1] = mouse
[2] = test system: trypsin; test: in vitro; settings: isolated enzyme trypsin
Protocol: (§4) Cell permeability of peptide drugs was determined by fluorescence measurement of TAMRA-labeled peptides in 96-well plates and ClarioStar Plus plate reader using BMG ClarioStar MARS software (version 4.20). […] Percent uptake was calculated as background-subtracted fluorescence absorbed by cells/fluorescence of peptide in media-only wells, then made relative to TAMRA-Alkyne. Three biological replicates (n = 3) were performed per cell line per treatment group. Peptide proteolysis was measured using immobilized Trypsin-agarose resin (Thermo Fisher) and quantification by LC-MS. […] In vivo pharmacokinetics were performed by the UACC Analytical Chemistry Shared Resource. […] The mice were fed NIH-31 irradiated pellets (Tekland Premier, Madison, Wisconsin), and reverse osmosis water was freely available. […] The average plasma concentration versus time data were analyzed using PKSolver (version 2.0) by a noncompartmental approach.

[3] = in vitro; settings: plasma
[4] = target: 97 kinases (kinase named in endpoint) (Homo sapiens, UniProt O15530); test: Eurofins KINOMEscan profiling, 97 kinases; settings: read-out: % Ctrl, PDPK1
Protocol: (§5) This experiment was performed by Eurofins KINOMEscan™ Profiling Service. […] The lysates were centrifuged and filtered, the remaining kinases were produced in HEK-293 cells and subsequently tagged with DNA for qPCR detection. […] The liganded beads were blocked with excess biotin and washed with blocking buffer (SeaBlock (Pierce), 1% BSA, 0.05% Tween-20, 1 mM DTT). […] Test compounds were prepared as 100x stocks in 100% DMSO and directly diluted into the assay. All reactions were performed in polypropylene 384-well plates in a final volume of 0.02 ml. […] The kinase concentration in the eluates was measured by qPCR.
(§6) (negative control signal - positive control signal)] x 100. ( b) AccompanyingSelectivity Scores or S -scores
(§7) which are quantitative measures of compound selectivity. They are calculated by dividing the number of
(§8) kinases that compounds bind to by the total number of distinct kinases tested, excluding mutant variants.
(§9) S(35)= ( num ber of non -mutant kinases with %Ctrl <35)/(number of non- mutant kinases tested)], S(10)=
(§10) non- mutant kinases with %Ctrl <1)/(number of non- mutant kinases tested)].

[5] = In vivo pharmacokinetics, single i.p. administration; settings: Cmax vs IC50 0.8 µM
Protocol: as §4

[6] = mouse, in vivo, ip
Protocol: as §4

[7] = in vivo; settings: female, Balb/cJ, mouse, ip
Protocol: as §4

[8] = test system: WM88 cells; test: LDH release assay; type: cell-based, human; settings: 100 μM to 200 nM, 45 min, n = 3
Protocol: (§1) Non-specific membrane disruption was assessed quantitatively by measuring the lactate dehydrogenase (LDH) activity in the medium using the cytoscan-LDH cytotoxicity assay kit (G-Biosciences Inc., St Louis, Mo, USA). SK-MEL-147 and WM88 human melanoma cells were plated in 96-well white-walled plates at 5k cells/well in 90 uL of serum complete DMEM and returned to a 37 °C incubator with 5% CO2 overnight. The cells were then treated in triplicate with 2012, 2020 (negative control), and Gambogic Acid (positive control) at titrating concentrations ranging from 100 μM to 200 nM and allowed to incubate for 45 min in a 37 °C incubator with 5% CO2. About 50 µl of supernatant was transferred from each well to a new flat-bottom 96-well white-walled plate and mixed with 50 µl of recombinant substrate mixture. This reaction was allowed to occur at room temperature for 30 min protected from light. Then, 50 µl of stop solution was added to terminate the reaction. […] Results were reported as 490 nm values […], averaged, three biological replicates were repeated per cell line, and graphs were generated using GraphPad Prism (version 10.3.1), reporting mean LDH activity ± SD.
(§2) LDH release assay preformed in human melanoma
(§3) Acid (pos. control) at titrating concentrations ranging from 100 μ M to 200 nM for 45 minutes. […]

[9] = test system: SK-MEL-147 cells; test: LDH release assay; type: cell-based, human; settings: 100 μM to 200 nM, 45 min, n = 3
Protocol: as §1, §2, §3

[10] = test system: FAK/paxillin focal adhesions in SK-MEL-147 cells; test: cells; type: cell-based, human; settings: 48 h
Protocol: SK-MEL-147 cells were collected and seeded into the inner 60 wells of 96-well, black-walled plates (Agilent, 204626-100) at 1000 cells per well in 100 uL of complete DMEM overnight in a 37 °C incubator with 5% CO2. The next day, the serum-containing media was removed from each well and cells were washed with PBS before treating the cells in serum-free DMEM and 0.5% DMSO for 48 h. After treatment, cells were pre-fixed with 4% paraformaldehyde diluted in 1x PBS being added directly to the culture medium for 2 min. Pre-fixation media was then removed, and 4% paraformaldehyde diluted in 1X PBS was added to each well for 3 min at room temperature. Fixative was then removed and neutralized twice with 100 mM Tris Buffered Saline in MilliQ water and then washed once with 0.1% Tween-20 in PBS. Cells were permeabilized with 0.5% Triton-X 100 in PBS for 5 min at room temperature, then the permeabilization buffer was removed, and cells were washed twice with 0.1% Tween-20 in PBS. Cells were then blocked with 10% Goat Serum in PBS for 1 h at room temperature. […] Antibody stain was then removed, and cells were washed twice with 0.1% Tween-20 in PBS. […] Cells were then washed twice with 0.1% Tween-20 in PBS and DAPI stain (Sigma-Aldrich, D9542-5MG, 1 mg/mL) diluted 1:40,000 in PBS in the dark for 5 min at room temperature. DAPI stain was then removed, and cells were washed twice with 0.1% Tween-20 in PBS, then twice with PBS for 5 min per wash on an orbital shaker. Plates were then imaged on the BioTek Cytation C10 Confocal Imaging Reader. Three fields of view were taken per well per run and analyzed in the accompanying Agilent BioTek Gen5 Software (version 3.16). The following software parameters were used to quantify FAK-containing, paxillin-containing, and FAK/paxillin-containing focal adhesions: area (0.25–33); circularity (<0.602); FAK signal to noise ratio (>2.55), FAK integrated density (SKMEL147 > 4200; WM88 >9400), paxillin signal to noise ratio (>4.5), paxillin integrated density (>8000), presence of F-actin (phalloidin) staining; and limited proximity to DAPI staining (integrated density <4000).

[11] = test system: trypsin; test: Trypsin proteolytic resistance assay; settings: immobilized trypsin-agarose resin
Protocol: as §4

[12] = test system: SK-MEL-147 cells; test: Cellular uptake of TAMRA-labeled peptides; type: in vitro ADME, human; settings: TAMRA-tagged, cell line not given
[13] = test system: kinases; settings: 1 µM, ref Cromm et al, 2018; cited from earlier work
Protocol: page 11: Comment 5: Reviewer Comment: “Line 299: “indicating potential [defactinib] toxicity beyond the 2.5 μM”. […] The high non- selectivity of defactinib at low micromolar doses indicates the potential of off-target effects and toxicity beyond 2.5 µM.

[14] = test system: 97 kinases (kinase named in endpoint); test: Eurofins KINOMEscan profiling, 97 kinases; settings: 1 µM
Protocol: as §5, §6, §7, §8, §9, §10

Sequence of 97 kinases (kinase named in endpoint) (Homo sapiens, UniProt O15530) (O15530 whole entry): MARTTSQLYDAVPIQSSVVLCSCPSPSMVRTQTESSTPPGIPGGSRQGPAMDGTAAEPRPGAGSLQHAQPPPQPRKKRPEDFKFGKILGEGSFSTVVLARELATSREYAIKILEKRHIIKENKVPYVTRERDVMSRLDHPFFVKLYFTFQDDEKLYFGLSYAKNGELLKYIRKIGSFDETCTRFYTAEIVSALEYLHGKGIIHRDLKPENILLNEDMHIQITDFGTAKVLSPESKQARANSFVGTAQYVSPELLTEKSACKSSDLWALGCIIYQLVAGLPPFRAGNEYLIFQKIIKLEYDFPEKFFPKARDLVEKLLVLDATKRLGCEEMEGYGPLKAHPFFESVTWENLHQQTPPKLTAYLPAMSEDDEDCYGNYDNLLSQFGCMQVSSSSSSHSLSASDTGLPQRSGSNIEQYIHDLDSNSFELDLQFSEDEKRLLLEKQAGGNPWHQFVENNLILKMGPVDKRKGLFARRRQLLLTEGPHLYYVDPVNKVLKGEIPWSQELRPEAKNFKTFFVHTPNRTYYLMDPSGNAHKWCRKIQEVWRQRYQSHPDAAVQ

SMILES: CCCCCCCCCCCCCC(=O)N[C@@H](CC(N)=O)C(=O)N[C@@H](CC(C)C)C(=O)N[C@]1(C)CCCCCCC=CCCC[C@@](C)(C(=O)N[C@@H](CCC(=O)O)C(=O)N[C@@H](CC(C)C)C(=O)N[C@@H](CC(N)=O)C(N)=O)NC(=O)[C@H](CC(C)C)NC(=O)[C@H](CC(C)C)NC(=O)[C@H](CCCNC(=N)N)NC(=O)[C@H](CC(=O)O)NC(=O)[C@H](CC(C)C)NC(=O)[C@H](CCC(=O)O)NC1=O [compound 2012]
plasma stability t1/2 [1]: > 2 h | remaining at 0.25 h, 100 µM [2]: 91% | remaining at 0.5 h, 100 µM [2]: 108% | remaining at 1 h, 100 µM [2]: 102% | remaining at 2 h, 100 µM [2]: 85% | remaining at 3 h, 100 µM [2]: 104% | remaining at 4 h, 100 µM [2]: 91% | remaining at 6 h, 100 µM [2]: 93% | remaining at 8 h, 100 µM [2]: 111% | remaining at 24 h, 100 µM [2]: 97% | remaining at 48 h, 100 µM [2]: 89% | fraction unbound [3]: < 0.01 | remaining binding at 1 µM [4]: 99% | excess of plasma concentration over focal adhesion IC50 [5]: 60 fold | Cmax, molar concentration [6]: 48.5 µM | plasma clearance [6]: 0.26 mL/min/kg | Cmax [7]: 89.4 µg/mL | half-life [7]: 16.5 h | level at 0.5 h ([7]; 2012 concentration): 11.4 µg/mL

IC50 [10]: > 25 µM | remaining at 0.25 h, 100 µM [11]: 97% | remaining at 0.5 h, 100 µM [11]: 99% | remaining at 1 h, 100 µM [11]: 98% | remaining at 2 h, 100 µM [11]: 95% | remaining at 3 h, 100 µM [11]: 90% | remaining at 4 h, 100 µM [11]: 92% | remaining at 6 h, 100 µM [11]: 93% | remaining at 8 h, 100 µM [11]: 93% | remaining at 24 h, 100 µM [11]: 91% | remaining at 48 h, 100 µM [11]: 89% | cell permeability compared to TAMRA-Alkyne control [12]: approximately threefold higher
SMILES: CCCCCCCCCCCCCC(=O)N[C@@H](CC(N)=O)C(=O)N[C@@H](CC(C)C)C(=O)N[C@]1(C)CCCCCCC=CCCC[C@@](C)(C(=O)N[C@@H](CCC(=O)O)C(=O)N[C@@H](CCC(=O)O)C(=O)N[C@@H](CC(N)=O)C(N)=O)NC(=O)[C@H](CC(C)C)NC(=O)[C@H](CC(C)C)NC(=O)[C@H](CCCNC(=N)N)NC(=O)[C@H](CC(=O)O)NC(=O)[C@H](CCC(=O)O)NC(=O)[C@H](CCC(=O)O)NC1=O [compound 2020] (Myristoyl-NL[R8]EEDRLL[S5]EEN-NH2; staple 3-10)
LDH release, plasma membrane damage [8]: do not result in damage to plasma membrane | LDH release, plasma membrane damage [9]: do not result in damage to plasma membrane

SMILES: CNC(=O)c1ccc(Nc2ncc(C(F)(F)F)c(NCc3nccnc3N(C)S(C)(=O)=O)n2)cc1 [defactinib]
IC50 ([10]; Homo sapiens, SK-MEL-147, n = 3, read-out: IC50, reduction of FAK-containing focal adhesions): 11.1 µM | IC50 ([10]; Homo sapiens, SK-MEL-147, n = 3, read-out: IC50, reduction of dual FAK-paxillin containing focal adhesions): 11.2 µM | IC50 ([10]; Homo sapiens, SK-MEL-147, n = 3, read-out: IC50, reduction of paxillin-containing focal adhesions): 18.7 µM | number of kinases bound with more than 65% inhibition [13]: ≥ 100 | additional kinases other than FAK inhibited [14]: 44 | kinases inhibited >50% (interactions mapped) out of 97 tested [14]: 45 | selectivity score S(1) ([14]; 90 non-mutant kinases): 0.033 | selectivity score S(10) ([14]; 90 non-mutant kinases): 0.122 | selectivity score S(35) ([14]; 90 non-mutant kinases): 0.256 | Number of Hits, S(1) ([14]; %Ctrl <1, 90 non-mutant kinases): 3 | Number of Hits, S(10) ([14]; %Ctrl <10, 90 non-mutant kinases): 11 | Number of Hits, S(35) ([14]; %Ctrl <35, 90 non-mutant kinases): 23 | remaining binding at 1 µM [4]: 50%
